Data taken from patent US8309734B2 (Hoffmann-La Roche Inc., priority 2008, dated 2012).

The compounds below were run against T1, human GPBAR1 receptor (Homo sapiens, UniProt Q8TDU6) (assay: functional cAMP assay in CHO-dhfr(minus) cells expressing human GPBAR1 receptors). Settings: cAMP increase (TR-FRET) in CHO-dhfr(minus) cells expressing human GPBAR1; compounds incubated 30 min at 30° C.
T1 construct: expressed in transfected cells
T1 sequence (Q8TDU6 1-330): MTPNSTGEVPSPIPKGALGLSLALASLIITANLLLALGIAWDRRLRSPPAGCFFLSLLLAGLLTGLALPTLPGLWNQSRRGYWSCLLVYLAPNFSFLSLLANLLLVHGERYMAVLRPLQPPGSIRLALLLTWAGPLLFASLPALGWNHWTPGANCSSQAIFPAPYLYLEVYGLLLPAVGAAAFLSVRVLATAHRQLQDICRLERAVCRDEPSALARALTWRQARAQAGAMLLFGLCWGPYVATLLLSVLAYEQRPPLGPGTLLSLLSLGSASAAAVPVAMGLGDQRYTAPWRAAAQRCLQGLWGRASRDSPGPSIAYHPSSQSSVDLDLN
Format: cell-based

Compound	EC50 [nM]
CN(C(=O)c1cccnc1Oc1cc(Cl)ccc1Cl)c1cnccc1Cl [Example 47, N-(4-Chloro-pyridin-3-yl)-2-(2,5-dichloro-phenoxy)-N-methyl-nicotinamide]	1250
O=C(c1cccnc1Oc1cc(Cl)c(Br)cc1Cl)N1CCN(C2CC2)c2ccccc21 [Example 163, [2-(4-Bromo-2,5-dichloro-phenoxy)-pyridin-3-yl]-(4-cyclopropyl-3,4-dihydro-2H-quinoxalin-1-yl)-methanone]	54
O=C(c1cc(F)cnc1Oc1ccc(F)c(Cl)c1)N1CCCc2cc(F)c(F)cc21 [Example 87, [2-(3-Chloro-4-fluoro-phenoxy)-5-fluoro-pyridin-3-yl]-(6,7-difluoro-3,4-dihydro-2H-quinolin-1-yl)-methanone]	75
Cc1ccnc(Cl)c1N(C)C(=O)c1cccnc1Oc1cc(Cl)ccc1Cl [Example 69, N-(2-Chloro-4-methyl-pyridin-3-yl)-2-(2,5-dichloro-phenoxy)-N-methyl-nicotinamide]	566
C=C1CCN(C(=O)c2cccnc2Oc2cc(Cl)ccc2Cl)c2ccccc21 [Example 129, [2-(2,5-Dichloro-phenoxy)-pyridin-3-yl]-(4-methylene-3,4-dihydro-2H-quinolin-1-yl)-methanone]	24
O=C(c1cccnc1Oc1cccc(Br)c1)N1CCCc2ccccc21 [Example 23, [2-(3-Bromo-phenoxy)-pyridin-3-yl]-(3,4-dihydro-2H-quinolin-1-yl)-methanone]	232
O=C(O)CCCCCN1CCN(C(=O)c2cc(F)cnc2Oc2cc(Cl)ccc2Cl)c2ccccc21 [Example 161, 6-{4-[2-(2,5-Dichloro-phenoxy)-5-fluoro-pyridine-3-carbonyl]-3,4-dihydro-2H-quinoxalin-1-yl}-hexanoic acid]	104
COC(=O)c1ccc(C#Cc2cc(Cl)c(Oc3ncccc3C(=O)N3CCN(C4CC4)c4ccccc43)cc2Cl)cc1Cl [Example 167, 2-Chloro-4-{2,5-dichloro-4-[3-(4-cyclopropyl-3,4-dihydro-2H-quinoxaline-1-carbonyl)-pyridin-2-yloxy]-phenylethynyl}-benzoic acid methyl ester]	211

Continued by falling EC50, values first:

EC50 [nM]	Compound
1160	COC(=O)c1ccc(C(=O)N2CCN(C(=O)c3cc(F)cnc3Oc3cc(Cl)ccc3Cl)c3ccccc32)cc1 [Example 162, 4-{4-[2-(2,5-Dichloro-phenoxy)-5-fluoro-pyridine-3-carbonyl]-3,4-dihydro-2H-quinoxaline-1-carbonyl}-benzoic acid methyl ester]
950	Cc1cccc2c1N(C(=O)c1cc(F)cnc1Oc1ccc(F)c(Cl)c1)CCC2 [Example 88, [2-(3-Chloro-4-fluoro-phenoxy)-5-fluoro-pyridin-3-yl]-(8-methyl-3,4-dihydro-2H-quinolin-1-yl)-methanone]
703	COc1ncccc1N(C)C(=O)c1ccncc1Oc1ccc(Cl)cc1Cl [Example 102, 3-(2,4-Dichloro-phenoxy)-N-(2-methoxy-pyridin-3-yl)-N-methyl-isonicotinamide]
641	COc1ccc(Cl)cc1N(C)C(=O)c1cccnc1Oc1cc(Cl)ccc1Cl [Example 55, N-(5-Chloro-2-methoxy-phenyl)-2-(2,5-dichloro-phenoxy)-N-methyl-nicotinamide]
631	Cc1ccc(Cl)cc1N(C)C(=O)c1cccnc1Oc1cc(Cl)ccc1Cl [Example 50, N-(5-Chloro-2-methyl-phenyl)-2-(2,5-dichloro-phenoxy)-N-methyl-nicotinamide]
384	CCOC(=O)CCCN1CCN(C(=O)c2cc(F)cnc2Oc2cc(Cl)ccc2Cl)c2ccccc21 [Example 158, 4-{4-[2-(2,5-Dichloro-phenoxy)-5-fluoro-pyridine-3-carbonyl]-3,4-dihydro-2H-quinoxalin-1-yl}-butyric acid ethyl ester]
19	O=C(c1ccncc1Oc1cc(Cl)ccc1Cl)N1CCCc2ccc(F)cc21 [Example 90, [3-(2,5-Dichloro-phenoxy)-pyridin-4-yl]-(7-fluoro-3,4-dihydro-2H-quinolin-1-yl)-methanone]
